Consider 1 molecule from patent publication US7041677B2, “Use of monochloroflosequinan in the treatment of sexual dysfunction” (R.T. Alamo Ventures I, LLC, priority 2002, dated 2006).

Structures are written as SMILES.

In this assay the test system is male Cynomolgus monkeys (Macaca fascicularis). As to the kind of experiment: Erection monitoring after single intracavernosal dose. In kind it is in vivo. Further details: key to Onset Score / Duration Score: 0: no response; erection but transient—less than 1 minute; 2: erection lasting at least 1 minute but less than 5 minutes; 3: erection lasting at least 5 minutes but less than 7 minutes; 4: erection lasting longer than 7 minutes. To be noted: for Erection Score: Erection Score=2D+O; for Onset of Erection: minutes post administration. How it is done: In this example, various halogenated derivatives of flosequinan were evaluated for their ability to induce penile erections. A single intracavernosal dose (of a given halogenated derivative of flosequinan) was administered to male Cynomolgus monkeys (Macaca fascicularis). The Cynomolgus monkey was selected because it is an appropriate established non-rodent species to be used as an erectile dysfunction model. Before the application of the test substances the possible erectile effect of dimethylsulfoxide 25% (DMSO) at a dose volume of 0.15 ml was assessed. (Concentrations of test compounds of less than 10 mg/ml were administered in 25% DMSO. Concentrations of 10 mg/ml or greater were administered in 100% DMSO). An initial dose level of 0.625 mg/kg of the test substance and the derivatives were used. If an erectile effect of the initial dose level was observed 1.25 mg/kg and finally 2.5 mg/kg of each test substance was used. Between each dose level and change of test substance there was a wash out phase of three days [except on Days 1 to 4 (Monochloroflosequinan Racemate) and days 40 to 43 (Monofluoroflosequinan) of the study where there was a wash out phase of only two days between treatments]. Dose volume: A dose volume of 0.15 ml per animal was used. The test substances were prepared according to the following scheme. For each test substance 10 mg was diluted in 1 ml of DMSO. After the test substance was completely dissolved the solution was diluted stepwise 1:2 with double distilled water to the required dose level. The test substance was formulated on the day of the dosing and stored at room temperature. No stability test was required when the test substances were formulated on the day of dosing. Remaining test substances were stored at approximately -80° C. Sufficient purpose-bred naive Cynomolgus monkeys (Macaca fascicularis) were obtained from a recognized supplier in order to provide 4 healthy male animals. At the start of study the animals were in the weight range of 4 to 7 kg and approximately 4 to 6 years old. The animals were housed in a climate controlled room to provide a minimum of 10 air changes per hour. Routinely the temperature and relative humidity ranges were between 19-25° C. and 30-70% respectively. Artificial lighting was controlled automatically to give a cycle of 12 hours light and 12 hours dark. The animals were housed singly in stainless steel cages (dimensions: 600 mm×600 mm×800 mm; E. Becker & Co. GmbH, 44579 Castrop-Rauxel, Germany). Each animal was offered twice daily between 50 to 70 g of a commercial pellet diet for primates (Ssniff P10, Ssniff Spezialdiäten GmbH, Ferdinand-Gabriel-Weg 16, 59494 Soest, Germany). Every three months diet was analyzed for specific contaminants. Tap water was provided ad libtum via an automatic watering system or bottles, except during urine collection. The water was periodically analyzed for specific contaminants found to be present in the diet or water at levels that might interfere with achieving the objective of the study. Clinical Observations: In addition to the initial pharmacological effect (penile erection) monitoring, all animals were observed twice daily for signs of ill health or overt toxicity. An individual record was maintained of the clinical condition of each animal. Post-dosing observations were performed at the discretion of the Study Director. All animals were examined at the beginning and the end of the working hours. […] Body weights were recorded once before dosing. Food consumption was not recorded. For proof of erection capability the animals were checked once pre-dose with electrostimulation using a rectal probe under sedation with […]. […] The onset post drug administration and duration of erection were recorded. Table 5 (below) provides an “Erection Score” and “Erection Index” for the same selected halogenated flosequinan derivatives presented in Table 5. […]

Where [1] appears, read: 10 mg/ml intracavernosal, monkey 11539M.
[2] abbreviates: 10 mg/ml intracavernosal, monkey 11543M.
[3] abbreviates: 10 mg/ml intracavernosal, monkey 11584M.
The mark [4] stands for this setting: 10 mg/ml intracavernosal, monkey 11590M.

Consider `Cn1cc([S+]([O-])C(Cl)Cl)c(=O)c2ccc(F)cc21` (stereo not shown) [dichloroflosequinan, 3-dichloromethylsulfinyl-7-fluoro-1-methyl-4-quinolone], for which, under setting [1], the “Duration Score” value is 0, the “Onset Score” value came to 0 and the “Erection Score” value was 0. Besides, under setting [2], the “Duration Erection” value came to 1 min, the “Duration Score” value is 2 (erection lasting at least 1 minute but less than 5 minutes), the “Onset Score” value is 4 (erection onset 1 minute or less (immediate)) and the “Erection Score” value came to 8. Moreover, under setting [3], the “Duration Erection” value amounted to 1 min, the “Duration Score” value is 2 (erection lasting at least 1 minute but less than 5 minutes), the “Onset Score” value is given as 4 (erection onset 1 minute or less (immediate)) and the “Onset of Erection” value is recorded as “immediate <1 min”. Also, the “Erection Score” value under setting [3] came to 8. Under setting [4], the “Duration Erection” value is 7 min, the “Duration Score” value is listed as 4 (erection lasting longer than 7 minutes), the “Onset Score” value is 4 (erection onset 1 minute or less (immediate)) and the “Onset of Erection” value is given as “immediate <1 min”. In addition, under setting [4], the “Erection Score” value amounted to 12. Moreover, the “Erection Index” value (10 mg/ml intracavernosal, Erection Score/n, n=number of animals (4 monkeys)) is reported as 7.0. The inducing penile erections result (Cynomolgus monkeys, intracavernosal, summary of Tables 4 & 5) is “especially effective”.
